Values joined by “and” are separate entries in the source; they are usually repeats but may differ in a detail not shown here. Identical values can stand only once.
Tests used:
stability in mouse serum = type: in vitro ADME; conditions: remaining compound after 4 h
mouse D1R = biological target: T1, mouse D1R (Mus musculus, UniProt Q61616); test: potentiator-mode cAMP assay in mouse CAD neuroblastoma cell line; type: cell-based; conditions: mouse CAD neuroblastoma cells
T1 construct: human SK-N-MC and mouse CAD neuroblastoma cell lines; endogenous in cells; host or cells: mouse CAD neuroblastoma cell line
Description: In order to ascertain if this allosteric potentiation was due to a modulation on DA affinity, radioligand binding assays in the presence of DA IC50 (4 μM) were carried out.
Compound 26 was tested in the potentiator-mode cAMP assay at different fixed concentrations (1, 5, and 10 μM). […] Therefore, it should have negligible direct activating effects on the human D1R in the absence of the endogenous ligand.
Figure 3 (A) Concentration–response curves in human D1R for cAMP production of DA alone (black) and in the presence of different concentrations of compound 26. (B) Concentration–response curves in human D1R of DA (black), 10 μM 26 for 10 min (red), and 10 μM 26 for 10 min then washing with assay buffer (blue). (C) Concentration–response curves in mouse D1R of DA alone (black) and in the presence of 10 μM 26 (red). (D) Concentration–response curve in human D1R of compound 26 in the presence of DA EC70 concentration. (E) Concentration–response curves in human D1R of DA (black) and compound 26 (red). (F) Concentration–response curves in human D1R of DA (red), after preincubation for 1 h with 10 μM DA (black), with 10 μM 26 (green), and with both 10 μM DA and 10 μM 26 (blue).

CYP3A4 = biological target: T2, CYP3A4 (Homo sapiens, UniProt P08684); test: cytochrome inhibition, fluorescence assay, CYP3A4; type: in vitro ADME
T2 construct: host or cells: insect cell microsomes
Description: (§1) Cytochrome inhibition. The objective of this study was to screen the potential of test […]
(§2) performed using recombinant isoforms CYP1A2, CYP2C9, CYP2C19, CYP2D6, and CYP3A4, and probe substrates with fluorescent detection.
(§3) Assays were conducted in a 200 µL volume in 96-well microtiter plates (COSTAR 3915).
(§4) Addition of cofactor-buffer mixture (KH2PO4 buffer, 1.3 mM NADP, 3.3 mM MgCl2, 3.3 mM glucose -6- phosphate, and 0.4 U/mL glucose -6- phosphate dehydrogenase), supersomes control, standard inhibitors (furafyline, tranylzypromine, ketoconazole, sulfaphenazole, and quinidine from Sigma Aldrich) and test compound to the plate was carried out by a liquid handling station (Zephyr Caliper). The plate was then pre-incubated at 37 °C for 5 min, and the reaction was initiated by the addition of the pr e - warmed enzyme/substrate (E/S) mix. […]
(§5) Fluorescence per well was measured using a fluorescence plate reader (Tecan Infinite M1000 pro) and percentage of inhibition was calculated. hERG ion channel inhibition. […]

human D2R = biological target: T3, human D2R (Homo sapiens, UniProt P14416); test: functional cAMP assay at recombinant human D2R in CHO cells; type: cell-based; conditions: 10 μM compound
T3 construct: expressed in transfected cells; host or cells: in-house CHO cell line
Description: Functional studies at human D1 and D2 receptors were carried out in endogenously expressed human D1R in the SK-N-MC cell line (ATCC), and recombinant human D2R stably transfected in an in-house CHO cell line. Cells were thawed and seeded into a black 96-well plate (1 × 10^4 cells/well for SK-N-MC cell line, 5 × 10^3 cells/well for CHO cell line) in Opti-MEM containing 500 μM IBMX (3-isobutyl-1-methylxanthine). Test compounds were added to the cells and incubated for 15 min at 25 °C for D1R, and for 5 min at 37 °C for D2R. After this time, dopamine was added to the corresponding wells and incubated for additional 15 min at 25 °C for D1R, and 10 min at 37 °C for D2R. Next, treated cells were lysed (for the D2R assay, cells were previously treated with 10 μM forskolin for 5 min at 37 °C) and the cAMP concentration was measured by HTRF, using a kit from Cisbio. HTRF was read in a Tecan M1000 Genius Pro reader (λexcitation = 320 nm, λemission = 620 and 665 nm, 30 flashes), and data were normalized to the dopamine maximum effect and fitted to a 4-parameter logistic equation by using Prism v2.1 software (GraphPad Inc).

CYP1A2 = biological target: T4, CYP1A2 (Homo sapiens, UniProt P05177); test: cytochrome inhibition, fluorescence assay, CYP1A2; type: in vitro ADME
T4 construct: host or cells: insect cell microsomes
T4 sequence (P05177 1-516): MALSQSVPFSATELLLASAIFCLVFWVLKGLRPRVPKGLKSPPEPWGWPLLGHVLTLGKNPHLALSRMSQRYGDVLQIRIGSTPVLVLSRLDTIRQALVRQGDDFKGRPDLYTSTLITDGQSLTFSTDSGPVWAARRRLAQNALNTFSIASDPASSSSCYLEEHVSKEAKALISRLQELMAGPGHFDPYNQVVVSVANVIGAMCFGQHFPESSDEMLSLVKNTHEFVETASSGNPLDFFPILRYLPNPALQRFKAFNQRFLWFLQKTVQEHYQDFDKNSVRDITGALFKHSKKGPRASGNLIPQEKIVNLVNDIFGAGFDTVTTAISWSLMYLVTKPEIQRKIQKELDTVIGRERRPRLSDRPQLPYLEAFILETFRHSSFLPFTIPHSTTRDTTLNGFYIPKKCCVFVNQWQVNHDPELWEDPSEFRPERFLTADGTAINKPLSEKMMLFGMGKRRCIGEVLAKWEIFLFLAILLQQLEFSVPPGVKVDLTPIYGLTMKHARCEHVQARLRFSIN
Description: as §1, §2, §3, §4, §5

CYP2D6 = biological target: T5, CYP2D6 (Homo sapiens, UniProt P10635); test: cytochrome inhibition, fluorescence assay, CYP2D6; type: in vitro ADME
T5 construct: host or cells: insect cell microsomes
Description: as §1, §2, §3, §4, §5

[1] = percentage of inhibition at 10 μM

T2 sequence (P08684 whole entry): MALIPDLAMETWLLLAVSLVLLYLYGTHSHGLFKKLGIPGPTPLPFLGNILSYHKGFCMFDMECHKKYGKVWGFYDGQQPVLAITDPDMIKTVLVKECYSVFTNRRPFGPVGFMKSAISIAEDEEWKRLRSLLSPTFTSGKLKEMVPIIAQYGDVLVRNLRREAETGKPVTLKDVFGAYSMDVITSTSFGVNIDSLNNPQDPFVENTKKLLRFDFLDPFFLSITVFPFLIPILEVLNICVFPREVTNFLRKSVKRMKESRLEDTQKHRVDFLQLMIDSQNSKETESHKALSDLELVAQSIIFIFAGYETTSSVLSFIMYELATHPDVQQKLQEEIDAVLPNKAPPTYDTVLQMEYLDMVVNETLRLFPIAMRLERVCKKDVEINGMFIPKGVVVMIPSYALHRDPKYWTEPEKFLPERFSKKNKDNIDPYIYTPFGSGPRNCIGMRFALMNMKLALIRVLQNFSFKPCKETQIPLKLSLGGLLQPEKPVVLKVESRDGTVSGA
T5 sequence (P10635 whole entry): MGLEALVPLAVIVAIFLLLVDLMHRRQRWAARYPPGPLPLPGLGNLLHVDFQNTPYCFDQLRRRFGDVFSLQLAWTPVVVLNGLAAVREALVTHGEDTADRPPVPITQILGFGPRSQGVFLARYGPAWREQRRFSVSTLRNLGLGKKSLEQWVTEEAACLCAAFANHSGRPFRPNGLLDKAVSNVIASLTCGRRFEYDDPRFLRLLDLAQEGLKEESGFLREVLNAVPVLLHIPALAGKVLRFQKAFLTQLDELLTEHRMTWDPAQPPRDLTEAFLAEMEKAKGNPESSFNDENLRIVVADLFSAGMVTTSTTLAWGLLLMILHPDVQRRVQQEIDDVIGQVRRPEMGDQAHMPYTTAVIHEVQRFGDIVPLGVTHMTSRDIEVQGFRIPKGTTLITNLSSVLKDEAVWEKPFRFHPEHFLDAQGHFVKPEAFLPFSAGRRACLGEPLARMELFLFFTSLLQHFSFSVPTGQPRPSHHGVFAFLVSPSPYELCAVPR
T3 sequence (P14416 whole entry): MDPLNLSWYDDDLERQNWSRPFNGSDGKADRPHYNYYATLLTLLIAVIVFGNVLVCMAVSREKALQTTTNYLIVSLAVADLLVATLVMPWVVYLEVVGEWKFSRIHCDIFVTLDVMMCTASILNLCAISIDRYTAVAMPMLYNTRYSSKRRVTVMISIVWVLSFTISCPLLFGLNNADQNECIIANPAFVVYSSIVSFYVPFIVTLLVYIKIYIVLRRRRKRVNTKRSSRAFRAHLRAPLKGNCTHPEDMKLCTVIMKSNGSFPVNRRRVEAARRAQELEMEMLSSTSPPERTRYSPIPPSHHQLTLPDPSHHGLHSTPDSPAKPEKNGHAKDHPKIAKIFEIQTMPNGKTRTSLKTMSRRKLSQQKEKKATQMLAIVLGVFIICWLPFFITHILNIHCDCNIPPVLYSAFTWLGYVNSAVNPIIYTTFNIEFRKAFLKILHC
T1 sequence (Q61616 whole entry): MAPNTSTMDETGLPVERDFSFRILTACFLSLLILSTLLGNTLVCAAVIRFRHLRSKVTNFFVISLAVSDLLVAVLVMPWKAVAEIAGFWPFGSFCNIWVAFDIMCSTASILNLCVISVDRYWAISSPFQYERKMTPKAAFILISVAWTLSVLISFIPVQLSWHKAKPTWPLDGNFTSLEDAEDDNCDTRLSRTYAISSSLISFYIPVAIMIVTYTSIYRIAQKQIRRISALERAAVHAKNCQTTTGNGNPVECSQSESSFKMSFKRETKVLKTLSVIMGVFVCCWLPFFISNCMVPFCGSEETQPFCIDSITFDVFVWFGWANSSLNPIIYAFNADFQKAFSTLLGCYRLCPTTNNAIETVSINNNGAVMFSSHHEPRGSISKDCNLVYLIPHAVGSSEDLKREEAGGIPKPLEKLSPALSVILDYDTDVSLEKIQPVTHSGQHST

Row | SMILES | mouse serum stability (%) (stability in mouse serum) | potentiation of DA effect in mouse D1R (mouse D1R) | IC50 (CYP3A4; read-out: CYP34A (IC50)) [µM] | enhancement of DA Emax at human D2 receptor (human D2R) | IC50 (CYP1A2) [µM] | CYP2D6 (%) (CYP2D6; Table S1, concentration not given) | CYP34A (%) (CYP3A4; [1]) | CYP1A2 (%) (CYP1A2; [1]) | CYP2D6 (%) (CYP2D6; [1])
1 | O=Cc1ccc(-c2ccccc2OCF)cc1 [Compound 3, 2′-(Fluoromethoxy)[1,1′-biphenyl]-4-carbaldehyde] | 50 | concentration-dependent potentiation of DA effect | 2.82 ± 0.32 | did not enhance DA Emax | 0.83 ± 0.17 | inactive |  |  | 
2 | CS(=N)(=O)c1ccc(-c2ccccc2OCF)cc1 (stereo not drawn) [Compound 26, 2-(Fluoromethoxy)-4′-(S-methanesulfonimidoyl)-1,1′-biphenyl] | 93 | PAM behavior was also observed |  | subtype selectivity |  |  | 9% and 9 ± 1% | 49 ± 2 | 3% and 3 ± 1%
